Literature values, collected in patent US20150299125A1, “PRODRUG BIPYRIDYLAMINOPYRIDINES AS SYK INHIBITORS” (MERCK SHARP & DOHME CORP., priority 2012, published 2015).

What was measured:
[1] = dosed intranasally, phase I/II study, allergic rhinitis; cited from earlier work
[2] = phase II clinical trial for allergic rhinitis; cited from earlier work

**Q.** For `Oc1cccc(Nc2ncc(F)c(Nc3cccc(O)c3)n2)c1` [Example R112], which PGD2 [1] is on record?
**A.** Its PGD2 is “statistically significant decrease”.

**Q.** And the clinical safety [1]?
**A.** The clinical safety was “safe across a range of indicators”.

**Q.** What about the efficacy versus placebo [2] of the same compound?
**A.** Its efficacy versus placebo is “lack of efficacy versus placebo”.
